Assay results as given in ChEMBL document CHEMBL5543140 (J Med Chem, 2024).
Calls of active or inactive are those of the source. The rule behind the calls is not given here.

Legend:
Brain = test: Drug binding in male Sprague-Dawley rat brain homogenate at 1 mg/kg, iv measured upto 8 hrs by LC-MS/MS analysis; type: ADME, organism-based; details: in vivo
[1] = molecular target: Muscarinic acetylcholine receptor M1 (Homo sapiens) (UniProt P11229); test: Displacement of [3H]-Pirenzepine from human muscarinic M1 expressed in CHO-K1 cells membrane at 10 uM incubated for 60 mins by microbeta liquid scintillation counting analysis; type: cell membranes; details: Cell membrane
Mus musculus [2] = test: Induction of neuroplasticity in C57BL/6J mouse assessed as increase in c-Fos mRNA expression in brain frontal cortex at 3 mg/kg, sc single dose by RT-PCR analysis; type: functional, organism-based
[3] = AUCinf in Wistar rat plasma at 1 mg/kg, iv measured upto 48 hrs; type: ADME, organism-based
[4] = molecular target: T1, 5-hydroxytryptamine receptor 2C (Homo sapiens, UniProt P28335); test: Displacement of [3H]LSD from human 5-HT2C receptor expressed in HEK293 cell membrane incubated for 90 mins by microbeta liquid scintillation counting method; type: cell membranes
T1 sequence (P28335 whole entry): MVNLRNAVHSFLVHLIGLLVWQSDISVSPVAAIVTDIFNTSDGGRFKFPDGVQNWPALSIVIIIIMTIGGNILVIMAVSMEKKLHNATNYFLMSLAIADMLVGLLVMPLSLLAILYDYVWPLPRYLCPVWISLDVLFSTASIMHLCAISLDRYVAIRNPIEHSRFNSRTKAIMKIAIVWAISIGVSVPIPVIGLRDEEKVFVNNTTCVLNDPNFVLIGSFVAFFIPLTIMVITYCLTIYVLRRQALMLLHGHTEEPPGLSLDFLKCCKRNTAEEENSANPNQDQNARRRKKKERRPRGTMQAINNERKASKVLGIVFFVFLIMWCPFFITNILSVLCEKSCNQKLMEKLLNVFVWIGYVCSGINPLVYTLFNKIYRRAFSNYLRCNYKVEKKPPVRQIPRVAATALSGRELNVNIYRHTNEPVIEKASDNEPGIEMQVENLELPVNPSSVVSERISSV

[5] = Ex vivo binding in C57BL/6J mouse brain frontal cortex assessed as specific binding [3H]Cimbi-36 at 1 mg/kg, sc measured after 10 mins by liquid scintillation counting analysis (reference value: 1092 +/- 53); type: functional
[6] = Tmax in beagle dog at 2 mg/kg, po measured upto 24 hrs; type: ADME, organism-based, Canis lupus familiaris; details: in vivo
[7] = molecular target: Voltage-dependent L-type calcium channel subunit alpha-1C (Homo sapiens, UniProt Q13936); test: Binding affinity to human Calcium channel L-type (verapamil site) at 10 uM measured after 180 mins by [3H]D888-Radiometric assay relative to control
Mus musculus [8] = test: Psychedelic effect in C57BL/6J mouse assessed as induction of 5-HT2A receptor dependent head-twitch responses by visual observation at 1 to 10 mg/kg, po measured for 120 to 150 mins relative to DOI; type: functional, organism-based; details: dose 1-10 mg/kg, time lower […], time upper 150.0 min
[9] = Metabolic stability in human liver S9 fractions assessed as half life; type: ADME, subcellular; details: liver S9 fraction
Mus musculus [10] = test: Induction of neuroplasticity in C57BL/6J mouse assessed as increase in Homer1 mRNA expression in brain frontal cortex at 3 mg/kg, sc single dose by RT-PCR analysis; type: functional, organism-based
[11] = AUClast in beagle dog at 2 mg/kg, po measured upto 24 hrs; type: ADME, organism-based, Canis lupus familiaris; details: in vivo
Hippocampus [12] = test: Induction of neuroplasticity in C57BL/6J mouse assessed as increase in EGR2 mRNA expression in brain hippocampus at 0.3 mg/kg, sc single dose by RT-PCR analysis; type: functional, organism-based
[13] = Initial plasma concentration in Wistar rat at 1 mg/kg, iv measured upto 48 hrs; type: ADME, organism-based
Mus musculus [14] = test: Psychedelic effect in C57BL/6J mouse assessed as induction of 5-HT2A receptor dependent maximal head-twitch responses by visual observation at 1 mg/kg, sc measured after 24 hrs; type: functional, organism-based
Homo sapiens = organism: Homo sapiens; test: Selectivity ratio, ratio of Ki for human 5-HT2B receptor to human 5-HT2C receptor
[15] = Ex vivo binding in C57BL/6J mouse brain frontal cortex assessed as specific binding [3H]Cimbi-36 at 1 mg/kg, sc measured after 220 mins by liquid scintillation counting analysis (reference value: 1092 +/- 53); type: functional; details: 3.667 h
[16] = molecular target: 5-hydroxytryptamine receptor 2B (Homo sapiens, UniProt P41595); test: Agonist activity at human 5-HT2B receptor expressed in CHO cells assessed as IP2 production measured after 30 mins incubation by HTRF assay; type: functional, cell-based
[17] = Metabolic stability in dog liver S9 fractions assessed as half life; type: ADME, subcellular, Canis lupus familiaris; details: liver S9 fraction
[18] = molecular target: Alpha-2C adrenergic receptor (Homo sapiens, UniProt P18825); test: biochemical
[19] = molecular target: 5-hydroxytryptamine receptor 1A (Homo sapiens, UniProt P08908); test: Displacement of [3H]-8-OH-DPAT from 5-HT1A receptor (unknown origin) assessed as inhibition binding
[20] = molecular target: T1, 5-hydroxytryptamine receptor 2C; test: Agonist activity at human 5-HT2C receptor expressed in HEK293 cells assessed as IP2 production measured after 30 mins incubation by HTRF assay; type: functional, cell-based
[21] = AUCinf in Wistar rat brain at 1 mg/kg, iv measured upto 48 hrs; type: ADME, organism-based
Hippocampus [22] = test: Induction of neuroplasticity in C57BL/6J mouse assessed as increase in […] mRNA expression in brain hippocampus at 0.3 mg/kg, sc single dose by RT-PCR analysis; type: functional, organism-based
[23] = Half life in Wistar rat brain at 1 mg/kg, iv measured upto 48 hrs; type: ADME, organism-based
[24] = Metabolic stability in dog liver microsomes assessed as half life at 1 uM incubated for 120 mins in presence of NADPH; type: ADME, Canis lupus familiaris, Microsome
Mus musculus [25] = test: Induction of neuroplasticity in C57BL/6J mouse assessed as increase in EGR2 mRNA expression in brain frontal cortex at 0.3 mg/kg, sc single dose by RT-PCR analysis; type: functional, organism-based
Mus musculus [26] = test: Psychedelic effect in C57BL/6J mouse assessed as number of 5-HT2A receptor dependent head-twitch responses by visual observation at 3 mg/kg, sc measured after 24 hrs; type: functional
Hippocampus [27] = test: Induction of neuroplasticity in C57BL/6J mouse assessed as increase in IGF1 mRNA expression in brain hippocampus at 0.3 mg/kg, sc single dose by RT-PCR analysis; type: functional, organism-based
[28] = AUClast in Wistar rat plasma at 5 mg/kg, po measured upto 48 hrs; type: ADME, organism-based
[29] = Unbound concentration in male Sprague-Dawley rat brain homogenate at 1 mg/kg, iv measured upto 8 hrs by LC-MS/MS analysis; type: ADME, organism-based
Hippocampus [30] = test: Induction of neuroplasticity in C57BL/6J mouse assessed as increase in BDNF mRNA expression in brain hippocampus at 3 mg/kg, sc single dose by RT-PCR analysis; type: functional, organism-based
[31] = Ex vivo binding in C57BL/6J mouse brain frontal cortex assessed as inhibition of [3H]Cimbi-36 binding at 1 mg/kg, sc measured after 300 mins by liquid scintillation counting analysis (reference value: 0%); type: functional; details: 5 h

Sequence of 5-hydroxytryptamine receptor 1A (P08908 whole entry): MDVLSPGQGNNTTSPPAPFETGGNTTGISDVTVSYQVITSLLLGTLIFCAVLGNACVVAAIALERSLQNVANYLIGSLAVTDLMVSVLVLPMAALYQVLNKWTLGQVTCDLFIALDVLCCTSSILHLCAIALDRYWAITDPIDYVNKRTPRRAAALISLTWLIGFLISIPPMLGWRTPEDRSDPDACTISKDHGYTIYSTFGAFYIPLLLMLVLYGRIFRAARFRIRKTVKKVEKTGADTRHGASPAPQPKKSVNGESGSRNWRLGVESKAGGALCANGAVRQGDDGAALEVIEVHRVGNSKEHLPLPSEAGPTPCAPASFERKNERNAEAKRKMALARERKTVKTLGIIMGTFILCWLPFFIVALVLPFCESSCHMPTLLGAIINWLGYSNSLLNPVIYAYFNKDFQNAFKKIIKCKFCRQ
Sequence of Voltage-dependent L-type calcium channel subunit alpha-1C (Q13936 whole entry): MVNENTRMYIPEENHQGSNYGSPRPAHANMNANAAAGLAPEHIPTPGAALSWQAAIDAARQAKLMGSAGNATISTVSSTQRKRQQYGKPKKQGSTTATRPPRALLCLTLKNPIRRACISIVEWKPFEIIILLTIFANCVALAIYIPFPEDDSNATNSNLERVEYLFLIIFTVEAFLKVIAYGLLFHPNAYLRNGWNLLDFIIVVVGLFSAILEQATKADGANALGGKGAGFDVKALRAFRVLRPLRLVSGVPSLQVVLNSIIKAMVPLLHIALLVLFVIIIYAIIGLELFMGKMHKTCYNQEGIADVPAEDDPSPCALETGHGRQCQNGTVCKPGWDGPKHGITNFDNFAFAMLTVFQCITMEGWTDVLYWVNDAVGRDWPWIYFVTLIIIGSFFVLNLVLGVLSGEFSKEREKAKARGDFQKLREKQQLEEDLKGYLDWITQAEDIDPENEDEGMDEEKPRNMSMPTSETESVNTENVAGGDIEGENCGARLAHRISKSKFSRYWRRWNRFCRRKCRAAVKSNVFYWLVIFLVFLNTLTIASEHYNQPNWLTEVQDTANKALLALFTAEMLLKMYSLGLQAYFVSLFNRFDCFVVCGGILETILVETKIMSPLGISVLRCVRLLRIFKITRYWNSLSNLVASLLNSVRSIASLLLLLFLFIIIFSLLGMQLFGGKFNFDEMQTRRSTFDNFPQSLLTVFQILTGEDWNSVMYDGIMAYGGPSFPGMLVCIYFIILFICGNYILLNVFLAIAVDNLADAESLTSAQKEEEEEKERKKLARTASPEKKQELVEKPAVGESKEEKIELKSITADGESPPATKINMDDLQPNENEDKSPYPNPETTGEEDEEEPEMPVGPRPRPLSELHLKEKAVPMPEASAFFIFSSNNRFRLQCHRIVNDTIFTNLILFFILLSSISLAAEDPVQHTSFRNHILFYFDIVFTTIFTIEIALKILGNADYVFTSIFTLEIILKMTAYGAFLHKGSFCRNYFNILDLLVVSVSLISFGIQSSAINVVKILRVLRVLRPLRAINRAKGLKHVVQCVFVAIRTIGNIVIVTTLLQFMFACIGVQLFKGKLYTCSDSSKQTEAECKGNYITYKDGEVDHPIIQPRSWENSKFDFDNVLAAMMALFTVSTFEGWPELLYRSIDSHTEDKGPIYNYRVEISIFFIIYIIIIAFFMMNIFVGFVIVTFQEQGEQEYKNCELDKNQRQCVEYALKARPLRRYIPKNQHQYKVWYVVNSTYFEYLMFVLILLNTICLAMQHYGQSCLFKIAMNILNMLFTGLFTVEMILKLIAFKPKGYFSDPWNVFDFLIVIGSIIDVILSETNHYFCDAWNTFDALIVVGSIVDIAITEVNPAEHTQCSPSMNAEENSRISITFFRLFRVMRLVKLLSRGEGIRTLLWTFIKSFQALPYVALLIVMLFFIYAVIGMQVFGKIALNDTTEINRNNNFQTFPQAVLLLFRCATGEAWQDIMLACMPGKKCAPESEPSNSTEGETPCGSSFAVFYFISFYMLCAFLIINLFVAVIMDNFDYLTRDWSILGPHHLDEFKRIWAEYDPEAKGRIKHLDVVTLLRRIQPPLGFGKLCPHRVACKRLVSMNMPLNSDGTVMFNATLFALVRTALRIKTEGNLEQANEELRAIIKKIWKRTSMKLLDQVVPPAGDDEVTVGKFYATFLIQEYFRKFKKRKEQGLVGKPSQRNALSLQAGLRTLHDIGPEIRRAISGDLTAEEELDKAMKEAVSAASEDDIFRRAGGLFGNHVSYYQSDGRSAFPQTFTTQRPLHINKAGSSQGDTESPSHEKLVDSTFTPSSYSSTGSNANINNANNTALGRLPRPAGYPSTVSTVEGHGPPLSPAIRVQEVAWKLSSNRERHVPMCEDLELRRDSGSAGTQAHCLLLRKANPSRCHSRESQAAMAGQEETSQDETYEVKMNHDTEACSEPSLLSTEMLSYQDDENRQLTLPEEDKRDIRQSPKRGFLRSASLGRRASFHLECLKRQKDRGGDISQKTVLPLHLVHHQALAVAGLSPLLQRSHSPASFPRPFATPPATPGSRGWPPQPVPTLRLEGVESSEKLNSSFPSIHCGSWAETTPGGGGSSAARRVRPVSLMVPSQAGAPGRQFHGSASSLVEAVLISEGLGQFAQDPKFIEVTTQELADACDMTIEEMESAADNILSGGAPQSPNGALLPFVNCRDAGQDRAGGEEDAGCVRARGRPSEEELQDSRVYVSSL
Sequence of Muscarinic acetylcholine receptor M1 (Homo sapiens) (P11229 whole entry): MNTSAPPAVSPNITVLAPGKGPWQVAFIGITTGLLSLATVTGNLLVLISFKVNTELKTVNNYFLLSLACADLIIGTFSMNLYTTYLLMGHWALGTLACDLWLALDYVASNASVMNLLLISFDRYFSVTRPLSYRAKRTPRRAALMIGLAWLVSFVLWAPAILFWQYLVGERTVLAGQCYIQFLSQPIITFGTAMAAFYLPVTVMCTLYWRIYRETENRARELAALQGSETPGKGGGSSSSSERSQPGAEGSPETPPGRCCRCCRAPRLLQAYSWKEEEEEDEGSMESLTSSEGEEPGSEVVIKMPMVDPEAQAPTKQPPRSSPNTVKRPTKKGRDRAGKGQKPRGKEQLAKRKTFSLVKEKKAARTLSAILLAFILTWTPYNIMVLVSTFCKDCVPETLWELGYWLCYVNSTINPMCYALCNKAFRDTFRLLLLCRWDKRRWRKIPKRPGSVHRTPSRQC
Sequence of 5-hydroxytryptamine receptor 2B (P41595 whole entry): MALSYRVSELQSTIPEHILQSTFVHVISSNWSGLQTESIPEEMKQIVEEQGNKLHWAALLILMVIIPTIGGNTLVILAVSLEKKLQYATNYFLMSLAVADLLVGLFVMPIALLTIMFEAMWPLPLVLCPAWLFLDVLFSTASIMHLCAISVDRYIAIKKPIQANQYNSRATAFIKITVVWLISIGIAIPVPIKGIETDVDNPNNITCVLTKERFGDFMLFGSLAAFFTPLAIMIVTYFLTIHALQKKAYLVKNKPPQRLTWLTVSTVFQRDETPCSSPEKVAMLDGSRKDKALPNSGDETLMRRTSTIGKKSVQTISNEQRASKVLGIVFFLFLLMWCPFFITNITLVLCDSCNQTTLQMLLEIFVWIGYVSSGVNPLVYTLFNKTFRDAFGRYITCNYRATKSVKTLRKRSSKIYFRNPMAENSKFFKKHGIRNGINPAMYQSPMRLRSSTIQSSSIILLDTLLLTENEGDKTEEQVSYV
Sequence of Alpha-2C adrenergic receptor (P18825 whole entry): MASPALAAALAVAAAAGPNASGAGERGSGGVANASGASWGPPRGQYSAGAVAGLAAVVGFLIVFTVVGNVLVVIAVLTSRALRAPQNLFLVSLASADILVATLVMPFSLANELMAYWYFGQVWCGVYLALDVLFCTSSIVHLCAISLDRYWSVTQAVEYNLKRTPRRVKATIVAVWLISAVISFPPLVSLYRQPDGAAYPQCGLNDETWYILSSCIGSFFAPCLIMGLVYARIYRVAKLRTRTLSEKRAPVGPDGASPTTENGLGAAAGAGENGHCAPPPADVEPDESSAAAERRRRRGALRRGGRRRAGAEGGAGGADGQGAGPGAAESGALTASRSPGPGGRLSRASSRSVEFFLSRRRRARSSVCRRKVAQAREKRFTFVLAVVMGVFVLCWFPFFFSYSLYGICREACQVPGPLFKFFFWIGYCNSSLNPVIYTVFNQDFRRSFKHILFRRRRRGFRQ

Structure (SMILES): COc1cc([Se]C(F)(F)F)c(OC)cc1CCN.Cl
- Activity (Brain): > 98%
- inhibition [1]: 88%
- Activity (Mus musculus [2]): Active
- AUC(0-inf) [3]: 50.7 ng·h/mL
- Ki [4]: 95 nM
- Activity [5]: 993
- Tmax [6]: 2 h
- Activity [7]: 85%
- Activity (Mus musculus [8]): Active
- half-life [9]: > 120 min
- Activity (Mus musculus [10]): Active
- AUC(0-t) at 24 h [11]: 2720 ng·h/mL
- Activity (Hippocampus [12]): inactive
- C0 at 48 h [13]: 67.2 ng/mL
- Activity (Mus musculus [14]): inactive
- Ratio Ki (Homo sapiens): 12
- Activity [15]: 796
- EC50 [16]: 88 nM
- half-life [17]: > 120 min
- Ki [18]: 108 nM
- Ki [19]: 32 nM
- EC50 [20]: 92 nM
- AUC(0-inf) [21]: 3260 ng·h/mL
- Activity (Hippocampus [22]): inactive
- half-life [23]: 146 min
- half-life at 1 µM [24]: > 120 min
- Activity (Mus musculus [25]): Active
- Activity (Mus musculus [26]): 25
- Activity (Hippocampus [27]): inactive
- AUC(0-t) at 48 h [28]: 40.3 ng·h/mL
- fraction unbound at 8 h [29]: 0.014
- Activity (Hippocampus [30]): inactive
- inhibition in vivo at 1 mg/kg [31]: 22%
